Reference: paper PMC7689096, “Cyclizing Painkillers: Development of Backbone-Cyclic TAPS Analogs” (Frontiers in Chemistry, 2020)

Assays:
mice [1] = test: Mouse tail flick test (analgesia); format: in vivo
Description: Following the preliminary results showing the in vitro agonist effect of TAPS c(2-6) in activating the μ-opioid receptor, the activity of TAPS c(2-6) in inducing analgesia in vivo was studied utilizing the mouse tail flick model. In this model, the mouse is exposed to local pain induced by an infrared light beam at the tail of the animal, and the time it takes for the animal to react to the pain, i.e., flick its tail, termed the “Latency time to tail flick,” is recorded. The treatment groups received either 5 or 15 mg/kg of TAPS c(2-6) dissolved in PBS. These were compared to animals receiving morphine (5 mg/kg) as a positive control or vehicle (PBS) as a negative control (Figure 9).
For the assessment of analgesia induced by TAPS c(2-6), the mouse tail-flick model was used. […] Animals were placed upon the TF instrument surface (Ugo Basile S.R.L) and held in place. The tail was placed straight back over an infrared light source. The heat source and timer were turned on and automatically switched off when the mouse flicked its tail away from the heat source. The time it took for the animal to flick its tail was measured and results were recorded as latency time to TF. […] Prior to TF measurement, assessment of possible locomotor side-effects via the Open-Field model was performed, as will be described in the next section TAPS c(2-6) Adverse Effect Assessment- the Open-Field Test.

[2] = Caco-2 permeability assay
[3] = biological target: T1, δ (DOP, OPRD2) opioid receptor (Mus musculus, UniProt P32300); test: DOP opioid receptor functional agonism in NG-10815 cells; format: cell-based, rat; settings: At 10^−6 M, percent of control specific agonist response
T1 construct: NG-10815 cells which express significant endogenous levels of δ opioid receptors; host or cells: NG-10815 (NG108-15) mouse N18TG2 neuroblastoma x rat C6-BU-1 glioma hybrid cells
T1 sequence (P32300 whole entry): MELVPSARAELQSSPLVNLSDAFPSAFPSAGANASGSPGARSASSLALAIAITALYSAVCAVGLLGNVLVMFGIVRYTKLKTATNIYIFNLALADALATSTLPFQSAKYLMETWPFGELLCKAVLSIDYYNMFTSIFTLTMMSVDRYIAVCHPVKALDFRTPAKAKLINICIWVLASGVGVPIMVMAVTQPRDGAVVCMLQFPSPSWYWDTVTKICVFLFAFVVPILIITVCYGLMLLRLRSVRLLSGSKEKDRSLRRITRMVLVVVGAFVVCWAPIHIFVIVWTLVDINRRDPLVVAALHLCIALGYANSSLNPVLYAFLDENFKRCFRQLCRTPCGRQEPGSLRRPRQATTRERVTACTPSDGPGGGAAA
Description: (§1) Peptides were tested for μ (MOP, OPRM1) and δ (DOP, OPRD2) opioid receptor activation functional agonism and antagonism using CHO cells expressing human recombinant μ receptors and NG-10815 cells which express significant endogenous levels of δ opioid receptors. The cultures were incubated for 10 min at 37°C followed by impedance measurements of CHO cells and cAMP was assayed by the HTRF method using NG-10815 cells, according to CEREP standard assay protocols. The respective reference, non-peptide small molecules were tested concurrently with the TAPS analogs. The agonist compounds were: DPDPE (selective agonist of DOP receptor) and DAMGO (high MOP receptor specificity) and the antagonist compounds were: Naltrindole (selective DOP receptor antagonist) and CTOP (MOP receptor antagonist). […] The results are expressed as a percentage of respective control-specific response. […] These findings indicate that TAPS cyclic peptides are MOP selective full agonists. […] The cyclic TAPS peptide had lower activity than the linear parent TAPS peptide (90 ± 5%) – a finding that can be attributed to their restricted conformation relative to the flexible linear peptide conformation.
Evaluation of the Agonist Activity of Compounds at the Rat delta2 Receptor Endogenously Expressed in NG-10815 Cells, Determined by Measuring Their Effects on Impedance Modulation Using the CellKey (CDS) Detection Method
Cells are seeded onto 96-well plate coated with fibronectin at 2 × 10^5 cells/well in HBSS buffer (Invitrogen) + 20 mM HEPES (Invitrogen) with 0.1% BSA and allowed to equilibrate for 60 min at 37°C before the start of the experiment. Plates are placed onto the system and measurements are made at a temperature of 37°C. […] Impedance measurements are monitored for 10 min after ligand addition. The standard reference agonist is DPDPE, which is tested in each experiment at several concentrations to generate a concentration-response curve from which its EC50 value is calculated.
The respective reference, non-peptide small molecules were tested concurrently with the TAPS analogs; Agonist compounds DPDPE ([D-Pen2,D-Pen5]enkephalin), selective agonist of DOP receptor at 2 × 10^−9 M and DAMGO ([D-Ala2, N-MePhe4, Gly-ol] enkephalin), high MOP specificity at 2.5 × 10^−9 M; Antagonist compounds: naltrindole 7-(cyclopropylmethyl)-6,7-dehydro-4,5α-epoxy-3,14-dihydroxy-6,7-2′,3′-indolomorphinan hydrochloride, selective DOP antagonist, 5 × 10^−10 M and CTOP (D-Phe-Cys-Tyr-D-Trp-Orn-Thr-Pen-Thr-NH2), MOP antagonist at 3.4 × 10^−7 M. Depending on the assay volume and solvent tolerance, the stock solutions were diluted to [100×], [333×] or [1,000×] in 100% DMEM solvent, then either added directly or further diluted to [10×] or [5×] in H2O or Hank's balanced salt solution (HBSS) before addition to the assay well (final solvent concentration kept constant). The cultures were incubated for 10 min at 37°C followed by impedance measurements using cellular dielectric spectroscopy of CHO cells and cAMP was assayed by homogeneous time resolved fluorescence (HTRF) method using NG-10815 cells, according to CEREP standard assay protocols (https://euroscreenfast.com/assays/opioid-orl1-camp-fast-0360c; https://euroscreenfast.com/assays/opioid-op1-delta-camp-fast-0379c). […]

mice [4] = test: Mouse open field test (locomotor adverse effect)
Description: In the mouse open field test (OF test), the distance and speed the animal moves over a 5-min time period is recorded, giving an indication as to whether a medication administered affected its locomotor activity. TAPS c(2-6) (5 or 15 mg/kg) was administered via IP administration and compared to morphine (5 mg/kg) and vehicle (PBS).
Male ICR mice (Harlan, Israel) 7 weeks of age (25–27) were used for all pharmacodynamic experiments after 5-day acclimation to laboratory conditions. Animals were allowed free access to food (standard commercial, sterile rodent diet) and water throughout the experiments and kept in automatically controlled environmental conditions for temperature and humidity levels in a 12-h dark-light cycle.
Animals were placed in the OF apparatus for a period of 5 min. The apparatus utilizes computerized monitoring which measures the speed and distance the animal walks during the measurement period. […] Baseline measurements were taken 1 day before initiation of the experiments and again at 0.5, 1.5, 3, and 5 h post injection.

[5] = biological target: T1, δ (DOP, OPRD2) opioid receptor; test: DOP opioid receptor functional antagonism in NG-10815 cells; format: cell-based, rat; settings: Between 10^−9-10^−6 M, percent inhibition of control specific agonist response
Description: as §1
The respective reference, non-peptide small molecules were tested concurrently with the TAPS analogs; Agonist compounds DPDPE ([D-Pen2,D-Pen5]enkephalin), selective agonist of DOP receptor at 2 × 10^−9 M and DAMGO ([D-Ala2, N-MePhe4, Gly-ol] enkephalin), high MOP specificity at 2.5 × 10^−9 M; Antagonist compounds: naltrindole 7-(cyclopropylmethyl)-6,7-dehydro-4,5α-epoxy-3,14-dihydroxy-6,7-2′,3′-indolomorphinan hydrochloride, selective DOP antagonist, 5 × 10^−10 M and CTOP (D-Phe-Cys-Tyr-D-Trp-Orn-Thr-Pen-Thr-NH2), MOP antagonist at 3.4 × 10^−7 M. Depending on the assay volume and solvent tolerance, the stock solutions were diluted to [100×], [333×] or [1,000×] in 100% DMEM solvent, then either added directly or further diluted to [10×] or [5×] in H2O or Hank's balanced salt solution (HBSS) before addition to the assay well (final solvent concentration kept constant). The cultures were incubated for 10 min at 37°C followed by impedance measurements using cellular dielectric spectroscopy of CHO cells and cAMP was assayed by homogeneous time resolved fluorescence (HTRF) method using NG-10815 cells, according to CEREP standard assay protocols (https://euroscreenfast.com/assays/opioid-orl1-camp-fast-0360c; https://euroscreenfast.com/assays/opioid-op1-delta-camp-fast-0379c). The results (mean of three experiments) are expressed as a percent of control specific agonist response [(measured TAPS specific response/control specific agonist response) × 100] and as a percent inhibition of control specific agonist response [100 – (measured TAPS specific response/control specific agonist response) × 100] obtained in the presence of the TAPS compounds. Results showing a stimulation or an inhibition lower than 25% were considered not significant and mostly attributable to variability of the signal around the control level. Results showing a stimulation or an inhibition higher than 50% were considered to represent significant effects of the TAPS compounds.

N=C(N)NCCC[C@@H]1C(=O)N[C@@H](Cc2ccccc2)C(=O)N(CC(N)=O)CCNC(=O)NCCCCCCN1C(=O)[C@@H](N)Cc1ccc(O)cc1 [TAPS c(2-6)]
analgesia (latency time to tail flick) (mice [1]; 5 mg/kg IP, compared to PBS): induced analgesia | analgesia (latency time to tail flick) (mice [1]; 15 mg/kg IP, compared to morphine 5 mg/kg): comparative in strength and duration to that induced by morphine | duration of analgesia (mice [1]; higher dosage 15 mg/kg IP): at least 5 h | Papp [2]: 11 ×10⁻⁶ cm/s | Papp A→B [2]: 0.038 ×10⁻⁶ cm/s | Papp B→A [2]: 0.05 ×10⁻⁶ cm/s | DOP agonist (%) [3]: 11% | locomotor effect (distance and speed of movement over 5 min) (mice [4]; 5 mg/kg IP): no locomotor effect | locomotor effect (distance and speed of movement over 5 min) (mice [4]; 15 mg/kg IP): no locomotor effect | DOP antagonist (%) [5]: 6%
